The values that follow come from US9918480B2, “Compositions and methods to selectively control invasive species” (STEPHEN F. AUSTIN STATE UNIVERSITY, priority 2013, dated 2018).

Read-outs that look alike come from different tables or passages of the source.

Data set [1] concerns giant salvinia (Salvinia molesta). In words: Spray of salviniside II and other isolates/fractions on giant salvinia plants. Further details: key to activity class against giant salvinia: inactive: not able to inhibit the growth of giant salvinia at all; active: able to fully inhibit the growth of giant salvinia at high concentrations; very active: able to fully inhibit the growth of giant salvinia at low concentrations. In kind it is in vivo. The protocol: The combined fractions were loaded on a pre-equilibrated open ODS column (60×600 mm). The ODS column was eluted successively with 30%, 55%, 75% and 100% MeOH to yield four fractions F1, F2, F3, and F4, respectively. […] NMR experiments were performed on a JEOL ECS-400 and a Bruker Avance 700 NMR instrument. NMR data were reported as δ (ppm) values and referenced to the solvent used. HRESIMS were acquired on an electrospray instrument (MDS Sciex Pulsar Qstar, Ontario, Canada). Octadecyl-functionalized silica gel, silica gel, Sephadex LH-20, and TLC plates were purchased from Aldrich Chemical Co. HPLC analysis was performed on a Hewlett Packard Series 1100 with a HP 1100 diode array detector using a Hypersil ODS column (150×4.6 mm, 5 μM, Supelco; flow rate, 1 mL/min; MeOH/H2O (v/v) linear gradient, 2:98-98:2 in 35 min). Preparative HPLC was performed with an Acuflow Series III pump connected with an Acutect 500 UV/VIS detector using an Econosil ODS column (250×22 mm, 10 μM, All tech). The total 27 healthy and untreated living plants of giant salvinia (in secondary growth stage, approximately 10 g in fresh weight each) were cultured and tested in plastic containers (14×15 cm, 0.68 L) in the NCPC Lab at RT. The […] treatments were as follows. Controls: 9 plants with three in each container (3 replications) were cultured with 150 mL of tap water; 0.01% salviniside II treatment: 9 plants with three in each container (3 replications) were sprayed with 150 mL 0.01% of salviniside II dissolved in tap water; and 0.1% salviniside II treatment: 9 plants with three in each container (3 replications) were sprayed with 150 mL 0.1% of salviniside II dissolved in tap water. […] By the end of two weeks, new growth biomass of plants in each treatment was measured. The biomass of new growth was a primary factor to measure the inhibition of each treatment on the target plant.

The subject of data set [2] is L. leucocephala. To be noted: 100 mg/L; cited from earlier work.
The test system of data set [3] is red imported fire ant (Solenopsis invicta Buren) workers. The experiment in a line: Contact toxicity assay, topical spray on fire ant workers, 7 h. The class given is in vivo. To be noted: PROBIT. The protocol: (§1) Preparation of the fire ant extracts: (1) Acetone extract: 97 g (in fresh weight) of the red imported fire ant workers were extracted two times with acetone at RT (each 250 mL, 24 h). […] (2) Ethanol extract: 110 g (in fresh weight) of the whole worker bodies of the red imported fire ant (Solenopsis invicta Buren) (family Furmicidae) were extracted two times with 95% EtOH at RT (each 250 mL, 24 h). […] Both extracts were dissolved in water and then prepared as experimental solutions at the concentration of 0.1%, 1%, 5%, and 10%, respectively. […] The mixture was put under ultrasound for 30 min extraction. The fire ants were then removed and the extract was dried with anhydrous magnesium sulfate. 500 μL of the extract was transferred to NMR tube for detection. ^1H-NMR experiments were performed on a JEOL ECS 400 spectrometer, with spectroscopic data referenced to the solvent used. […] The ants in each beaker were topically sprayed with a total 1 mL of 0.1%, 1%, 5%, or 10% solutions of either acetone or ethanol extract, respectively. The control group was sprayed with 1 mL pure water. The beakers in all treatments were covered by cloth to prevent the escape of the fire ants. The surviving number of the fire ants in each treatment was counted by 1 h interval for 7 h. […] The ants in each beaker were topically sprayed with a total 1 mL of 0.1%, 1%, or 5% solutions of either formic or acetic acids, respectively. The control group was sprayed with 1 mL pure water. The beakers in all treatments were covered by cloth to prevent the escape of fire ants. The surviving number of the fire ants in each treatment was counted by 1 h interval for 7 h. […] The surviving number of the fire ants in each treatment was counted by 15 min interval for 90 min. […] The surviving number of the fire ants in each treatment was counted by 15 min interval for 90 min. […] The surviving number of the fire ants in each treatment was counted by 1 h interval for 7 h. […] The surviving number of the fire ants in each treatment was counted by 1 h interval for 2 h. […]

Data set [4] deals with giant salvinia (Salvinia molesta). The protocol: Plant growth and survival status were documented and photographed hourly for the first 5 h and then daily for seven days after the treatment.
Data set [5] concerns red imported fire ant (Solenopsis invicta Buren) workers. To be noted: for average mortality: 90 min. How it is done: as §1
In data set [6] the test system is subterranean termite (Reticulitermes flavipes (Kollar)). To be noted: for termite kill: during the first hour. The protocol:
The mixture was put under ultrasound for 30 min extraction. The termites were then removed and the extract was dried with anhydrous magnesium sulfate. 500 μL of the extract was transferred to NMR tube for detection. ^1H-NMR experiments were performed on a JEOL ECS 400 spectrometer, with spectroscopic data referenced to the solvent used. […] The control group was sprayed with 1 mL pure water. The beakers in all treatments were covered by cloth to prevent the escape of termites. The surviving number of the termites in each treatment was counted by 1 h interval for 7 h.

In data set [7] the test system is seedlings of rice cultivars. To be noted: vs four species of Brassicaceae, Asteraceae, Fabaceae and five weed grass species of Poaceae; cited from earlier work.

As for “4″,6″-O-[3,5-dicarbonyl-8-hydroxy-2-(4′,5′-dihydroxy-phenyl)-1-benzofuran-2-yl]-D-glucopyranose [salviniside II]”, the new growth thereafter entry in data set [1] (0.1%, eight months of observation) is recorded as “no new growth”. The “growth of giant salvinia” value in data set [1] (0.1%, within two weeks, lab at RT) is reported as “totally inhibited”. The “activity class against giant salvinia” value in data set [1] (isolates and subfractions of F3) was “active”.

Consider `NC(Cn1ccc(=O)c(O)c1)C(=O)O` (stereo not shown) [Minosine], for which the “inhibition on the producing plants” value in data set [2] is reported as “did not show any inhibition”.

For `CC(=O)O` [acetic acid], in data set [3], the “7 h LD50” value was found to be 6.42% and the “7 h LD90” value amounted to 9.96%.

In the case of `O=CO` [formic acid], the growth inhibition entry in data set [4] (0.01% concentration) was “still effectively inhibited the growth of giant salvinia”. The plants killed result in data set [4] (0.05% concentration, within 24 h) is given as “approximately 50%”. In addition, the “7 h LD90” value turned out to be 5.09% in data set [3] and 9.08% in data set [6] (contact toxicity). Besides, the figures for the average mortality entry in data set [5] (2.5%) and in data set [5] (5%) were “more than 70%” and 100%, respectively. Moreover, in data set [5] (fumigation, PROBIT), the “2 h LD90” value is 0.9%. In addition, the “impact on the termites” value in data set [6] (0.1%) is reported as “no impact”. In data set [6] (1%, 7 h), the termites killed result is given as “more than 40%”. The termite kill entry in data set [6] (5%) and in data set [6] (10%) was “killed all termites” each time.

`C=C[C@]1(C)CC[C@@H]2C(=C[C@H]3OC(=O)[C@@]4(C)C(=O)CC[C@@]2(C)[C@@H]34)C1` [momilactone A]: the “effective concentration to inhibit rice seedlings relative to that for other species” value in data set [7] is reported as 100 times.

Regarding `C=C[C@]1(C)CC[C@@H]2C(=C[C@H]3OC(=O)[C@]4(C)[C@H]3[C@]23CC[C@@]4(O)OC3)C1` [momilactone B], the “effective concentration to inhibit rice seedlings relative to that for other species” value in data set [7] is on record as 333 times.
